“And” between values parts separate entries of the source, which are not always exact repeats. Identical values can stand only once. Like-named read-outs stand apart in the source and are kept apart here. Blank lines part the entries; values can stand above or below the compound they belong to.
What was measured:
[1] = tested on: 5-LOX mediated LT biosynthesis; test: LT biosynthesis inhibition assay in activated neutrophile granulocytes, LTB4 EIA; format: cell-based, human
Procedure: 1.) LT biosynthesis inhibition assay
The assay was performed as described in [Michael Adams, Olaf Kunert, Ernst Haslinger, Rudolf Bauer: Inhibition of Leukotriene Biosynthesis by Quinolone Alkaloids from the Fruits of Evodia Rutaecarpa; Planta med. 2004 (70): 904-908] with some modifications.
Principle: Activated neutrophile granulocytes with 5-LOX activity are incubated with a defined concentration of test sample and arachidonic acid. After stopping the enzymatic reaction by addition of formic acid and centrifugation to remove cellular fragments, the produced LTB4 is quantified in the supernatant by means of an LTB4 EIA kit.
Isolation of human neutrophile granulocytes: 30 ml of venous human blood from healthy voluntary donors are collected with a Vacutainer™ (BD, Plymouth, UK) system containing a 0.219 M pre-analytical citric acid solution. The blood is immediately transferred to a falcon tube containing 20 ml of sedimentation solution (1% NaCl, 6% dextran T-500) and left to separate for 60 min at 4° C. While most of the dense erythrocytes sink into the dextran layer, the lighter blood fractions remain in the upper layer which is then removed and centrifuged at 1600 rpm (4° C., 10 min) to concentrate the leukocytes. The plasma supernatant is discarded, the pellet is resuspended in 10 ml of a wash buffer (10% CaCl2.2H2O p.a.; 0.1% anhydrous d-glucose; 0.2% MgCl2.6H2O; 0.04% KCl; 1.75% TRIS p.a.; with the pH adjusted to 7.6 with 1N HCl). After centrifugation at 1400 rpm (4° C., 10 min) and removal of the supernatant the resulting pellet is resuspended in 10 ml of a hypotonic lysis buffer (0.17% NH4Cl; 0.2% TRIS; pH 7.2) and gently shaken for 5 min at room temperature to destroy remaining erythrocytes. The suspension is submitted to another centrifugation at 1400 rpm (4° C., 5 min). The pellet is resuspended in 10 ml of wash buffer and then centrifuged at 1400 rpm (4° C., 15 min). The resulting pellet which now mainly contains neutrophile granulocytes is resuspended in 2 ml of TRIS buffer (1.75% TRIS p.a., 0.9% NaCl, pH 7.4), tested for vitality, quantified and then diluted to a cell concentration of 4500 cells/ml with TRIS buffer.
Cell vitality test: 50 μl of cell suspension and 10 μl of trypan blue solution (0.4%) (Sigma Chemical Co. Steinheim, Germany) are mixed on a glass object carrier and examined with a light microscope at 1000 fold magnification. Dead cells appear larger and darker due to absorption of trypan blue. The vitality of the cells must be >95%.
Determination of cell concentration: 10 μl of granulocyte cell suspension are dyed using 990 μl aqueous TURKS solution (Merck) and quantified in a “Neubauer” chamber (Assistent, Germany).
Sample preparation: samples are dissolved in an appropriate amount of ethanol p.a. to be added to the test mixture resulting in screening concentrations of 50 μM for pure compounds and 20 μg/ml for crude. The commercially available 5-LOX inhibitor zileuton (Sequoia Research Products Ltd., UK) is used as a positive control at a concentration of 10 μM representing its IC50 in this test system.
Incubation procedure: The incubation mixture in a 96-well flat bottom microtitre plate (Bibby Sterilin, Staffordshire, UK) consists of 265 μl leukocyte suspension, with 75.5 μM CaCl2, 0.152 μM […] (ETYA) as an inhibitor of the 12-LOX pathway, 0.642 μM Ca ionophore A23187 and 4.43 μM arachidonic acid, the substrate of the 5-LOX pathway, along with 5 μl of each test solution or 5 μl of EtOH p.a. in control wells. After incubation for 10 min at 37° C. in darkness, the reaction is stopped by addition of 20 μl of 10% formic acid. The microtitre plate is centrifuged for 15 min at 1400 rpm to separate free LTB4 from cellular particles before the supernatant is diluted 40 fold in EIA buffer and applied to a competitive LTB4 EIA kit (Assay Designs Inc.).
LTB4 EIA: The plate is incubated for 2 hours at room temperature on an orbital shaker. […]

IL-6 and TNF-α = test: Sow feeding trial, Postpartum Dysgalactia Syndrome, inflammation markers; format: in vivo; conditions: sows, relative to untreated animals at allocation day
Procedure: Principle: Evaluation of the antiinflammatory activity of Larch sawdust in order to reduce the prevalence of Postpartum Dysgalactia Syndrome in sows under field conditions. IL-6 and TNF-α were analyzed as markers of inflammatory stress.
Materials and Methods: Sows with no clinical signs of disease were used from a farm of approximately 900 sows under production. Trial animals were sows of the same genotype (Dalland hybrids), chosen in terms of achieving homogenity regarding parity, bodyweight, previous production parameters (litter size, litter average bodyweight etc.) and previous health status. The farm was selected due to previous history of Post Partum Dysgalactia Syndrome occurrence. The sows were randomly allocated to a control group (n=5), a positive control group (n=5) and a larch sawdust (n=5) group. The whole trial period was 35 days beginning at 7 days prior to farrow until the day of weaning.
1% by weight of larch sawdust was added as an anti-inflammatory ingredient to sow feed (dry period and lactation feed). […] The raw materials were well accepted at an inclusion level of 1% by weight in the diet as it was shown by previous trials performed.
Thus, during the whole trial period the animals were fed as follows:
1. Control group (99% Basic diet and 1% Corn starch) 2. Larch group (99% Basic diet and 1% Larch) 3. Positive control group (99% Basic diet and 1% Corn starch)
Moreover, the animals of the positive control group were injected a single 2 ml dosage of an antiinflammatory drug (meloxicam) at the day of parturition, while the animals of all the other groups were injected with a single 2 ml dose of normal saline at the same day.
Blood samples were collected from all trial animals at allocation day (7 days before farrowing day) and at 24 and 72 hours post farrowing from all sows for inflammation markers evaluation (serum TNF-α, plasma IL-6). Additionally the milk production index for all sows was calculated, while production and health parameters of sows and their litters were recorded.
The cytokines results were expressed as n-fold increase of cytokine expression in relation to untreated animals at allocation day.

5-lipoxygenase (5-LOX) = conditions: read-out: 5-LOX inhibitory activity IC50, cited from earlier work

IC50 [1]: 5 µM
IC50 ([1]; Homo sapiens): 10 µM and 1.2 µg/mL
SMILES: CC(c1cc2ccccc2s1)N(O)C(N)=O (centres unmarked) [Zileuton, reference compound]

SMILES: Cc1cnc(NC(=O)C2=C(O)c3ccccc3S(=O)(=O)N2C)s1 [Positive controls, meloxicam]
Relative expression of IL6 (IL-6 and TNF-α; 24 hours PP): 1.86 ± 0.92 n fold
Relative expression of TNFα (IL-6 and TNF-α; 24 hours PP): 0.87 ± 0.29 n fold
Relative expression of IL6 (IL-6 and TNF-α; 72 hours PP): 1.08 ± 0.78 n fold
Relative expression of TNFα (IL-6 and TNF-α; 72 hours PP): 0.98 ± 0.77 n fold

SMILES: CC(C)C1=CC2=CC[C@@H]3[C@](C)(CCC[C@@]3(C)C(=O)O)[C@H]2CC1 [abietic acid]
IC50 (5-lipoxygenase (5-LOX); Ulusu et al. 2002, isolated from cones of Abies nordmanniana ssp. equitraojani): 29.5 ± 1.29 µM
IC50 (5-lipoxygenase (5-LOX); known from the art): ~30 µM
